Patent publication US10308650B2, “Pesticidally active tetracyclic derivatives with sulfur containing substituents” (Syngenta Participations AG, priority 2014, dated 2019)

Key:
Assay type in all cases: in vivo
[1] = tested on: Spodoptera littoralis (Egyptian Cotton Leaf Worm); test: Activity against Spodoptera littoralis (cotton leaf discs, spray); conditions: foliar, 72 h, application rate of 200 ppm, cotton leaf discs, L1 larvae, 3 days after infestation, read-out: control (mortality, anti-feeding effect, growth inhibition)
Description: Example B9: Activity Against Spodoptera littoralis (Egyptian Cotton Leaf Worm)
Cotton leaf discs were placed onto agar in 24-well microtiter plates and sprayed with aqueous test solutions prepared from 10,000 ppm DMSO stock solutions. After drying the leaf discs were infested with five L1 larvae. The samples were assessed for mortality, anti-feeding effect, and growth inhibition in comparison to untreated samples 3 days after infestation. Control of Spodoptera littoralis by a test sample is given when at least one of the categories mortality, anti-feedant effect, and growth inhibition is higher than the untreated sample.

[2] = tested on: Tetranychus urticae (Two-Spotted Spider Mite); test: Activity against Tetranychus urticae: feeding/contact activity; conditions: foliar, 192 h, application rate of 200 ppm, bean leaf discs, mixed population (mobile stages), 8 days after infestation
Description: Example B11: Activity Against Tetranychus urticae (Two-Spotted Spider Mite): Feeding/Contact Activity
Bean leaf discs on agar in 24-well microtiter plates were sprayed with aqueous test solutions prepared from 10,000 ppm DMSO stock solutions. After drying the leaf discs were infested with a mite population of mixed ages. The samples were assessed for mortality on mixed population (mobile stages) 8 days after infestation.

[3] = tested on: Bemisia tabaci (Cotton White Fly); test: Activity against Bemisia tabaci: feeding/contact activity; conditions: foliar, 144 h, application rate of 200 ppm, cotton leaf discs, adult white flies, 6 days after incubation
Description: Example B1: Activity Against Bemisia tabaci (Cotton White Fly): Feeding/Contact Activity
Cotton leaf discs were placed on agar in 24-well microtiter plates and sprayed with aqueous test solutions prepared from 10,000 ppm DMSO stock solutions. After drying the leaf discs were infested with adult white flies. The samples were checked for mortality 6 days after incubation.

[4] = tested on: Diabrotica balteata (Corn Root Worm); test: Activity against Diabrotica balteata; conditions: 96 h, application rate of 200 ppm, maize sprouts, L2 larvae, 4 days after infestation, read-out: effect in at least one of the two categories (mortality or growth inhibition)
Description: Example B2: Activity Against Diabrotica balteata (Corn Root Worm)
Maize sprouts placed onto an agar layer in 24-well microtiter plates were treated with aqueous test solutions prepared from 10,000 ppm DMSO stock solutions by spraying. After drying, the plates were infested with L2 larvae (6 to 10 per well). The samples were assessed for mortality and growth inhibition in comparison to untreated samples 4 days after infestation.

[5] = tested on: Euschistus heros (Neotropical Brown Stink Bug); test: Activity against Euschistus heros; conditions: 120 h, application rate of 200 ppm, soybean leaves, N2 nymphs, 5 days after infestation, read-out: effect in at least one of the two categories (mortality or growth inhibition)
Description: Example B3: Activity Against Euschistus heros (Neotropical Brown Stink Bug)
Soybean leaves on agar in 24-well microtiter plates were sprayed with aqueous test solutions prepared from 10,000 ppm DMSO stock solutions. After drying the leaves were infested with N2 nymphs. The samples were assessed for mortality and growth inhibition in comparison to untreated samples 5 days after infestation.

[6] = tested on: Frankliniella occidentalis (Western Flower Thrips); test: Activity against Frankliniella occidentalis: feeding/contact activity; conditions: foliar, 168 h, application rate of 200 ppm, sunflower leaf discs, population of mixed ages, 7 days after infestation
Description: Example B4: Activity Against Frankliniella occidentalis (Western Flower Thrips): Feeding/Contact Activity
(§1) Sunflower leaf discs were placed on agar in 24-well microtiter plates and sprayed with aqueous test solutions prepared from 10,000 DMSO stock solutions. After drying the leaf discs were infested with a Frankliniella population of mixed ages. The samples were assessed for mortality 7 days after infestation.

[7] = tested on: Myzus persicae (Green Peach Aphid); test: Activity against Myzus persicae: feeding/contact activity; conditions: foliar, 144 h, application rate of 200 ppm, sunflower leaf discs, aphid population of mixed ages, 6 days after infestation, read-out: mortality
Description: Example B5: Activity Against Myzus persicae (Green Peach Aphid): Feeding/Contact Activity
Sunflower leaf discs were placed onto agar in a 24-well microtiter plate and sprayed with aqueous test solutions prepared from 10,000 ppm DMSO stock solutions. After drying, the leaf discs were infested with an aphid population of mixed ages. The samples were assessed for mortality 6 days after infestation.

[8] = tested on: Myzus persicae (Green Peach Aphid); test: Activity against Myzus persicae: systemic activity; conditions: 144 h, test rate of 24 ppm, roots of infested pea seedlings in test solution, 6 days, read-out: mortality
Description: Example B6: Activity Against Myzus persicae (Green Peach Aphid). Systemic Activity
Roots of pea seedlings infested with an aphid population of mixed ages were placed directly into aqueous test solutions prepared from 10,000 DMSO stock solutions. The samples were assessed for mortality 6 days after placing seedlings into test solutions.

[9] = tested on: Plutella xylostella (Diamond Back Moth); test: Activity against Plutella xylostella; conditions: 120 h, application rate of 200 ppm, artificial diet, L2 larvae, 5 days after infestation, read-out: effect in at least one of the two categories (mortality or growth inhibition)
Description: Example B8: Activity Against Plutella xylostella (Diamond Back Moth)
24-well microtiter plates with artificial diet were treated with aqueous test solutions prepared from 10,000 ppm DMSO stock solutions by pipetting. After drying, the plates were infested with L2 larvae (10 to 15 per well). The samples were assessed for mortality and growth inhibition in comparison to untreated samples 5 days after infestation.

[10] = tested on: Spodoptera littoralis (Egyptian Cotton Leaf Worm); test: Activity against Spodoptera littoralis (lettuce, uptake by the roots from agar); conditions: 144 h, test rate of 12.5 ppm, lettuce grown on treated agar, Spodoptera eggs, 6 days after infestation, read-out: effect in at least one of the three categories (mortality, anti-feeding, or growth inhibition)
Text: Example B10: Activity Against Spodoptera littoralis (Egyptian Cotton Leaf Worm)
Test compounds were applied by pipette from 10,000 ppm DMSO stock solutions into 24-well plates and mixed with agar. Lettuce seeds were placed onto the agar and the multi well plate was closed by another plate which contained also agar. After 7 days the compound was absorbed by the roots and the lettuce grew into the lid plate. The lettuce leaves were then cut off into the lid plate. Spodoptera eggs were pipetted through a plastic stencil onto a humid gel blotting paper and the lid plate was closed with it. The samples were assessed for mortality, anti-feedant effect and growth inhibition in comparison to untreated samples 6 days after infestation.

[11] = tested on: Thrips tabaci (Onion Thrips); test: Activity against Thrips tabaci: feeding/contact activity; conditions: foliar, 144 h, application rate of 200 ppm, sunflower leaf discs, thrips population of mixed ages, 6 days after infestation
Description: Example B12: Activity Against Thrips tabaci (Onion Thrips) Feeding/Contact Activity
as §1, with “10,000 ppm” for “10,000”, “thrips” for “Frankliniella”, “6” for “7”

[12] = tested on: Aedes aegypti (Yellow Fever Mosquito); test: Activity against Aedes aegypti; conditions: 200 ppm in ethanol, dry deposit in 12 well plates, adult females, after 48 h and/or 24 h
Description: Example B13: Activity Against Aedes aegypti (Yellow Fever Mosquito)
Test solutions, at an application rate of 200 ppm in ethanol, were applied to 12 well tissue culture plates. Once the deposits were dry, five, two to five day old adult female Aedes aegypti were added to each well, and sustained with a 10% sucrose solution in a cotton wool plug. Assessment of knockdown was made one hour after introduction, and mortality was assessed at 24 and 48 hours after introduction.

[13] = tested on: Myzus persicae (Green Peach Aphid); test: Activity against Myzus persicae: intrinsic activity; conditions: 120 h, test rate of 12 ppm, sucrose solution under Parafilm, 5 days after infestation, read-out: mortality
Text: Example B7: Activity Against Myzus persicae (Green Peach Aphid). Intrinsic Activity
Test compounds prepared from 10,000 ppm DMSO stock solutions were applied by pipette into 24-well microtiter plates and mixed with sucrose solution. The plates were closed with a stretched Parafilm. A plastic stencil with 24 holes was placed onto the plate and infested pea seedlings were placed directly on the Parafilm. The infested plate was closed with a gel blotting paper and another plastic stencil and then turned upside down. The samples were assessed for mortality 5 days after infestation.

CCS(=O)(=O)c1cc2nc(C(F)(F)F)[nH]c2cc1-c1nc2cc(C(F)(F)F)ncc2n1C [Compound A7, 2-[6-ethylsulfonyl-2-(trifluoromethyl)-3H-benzimidazol-5-yl]-3-methyl-6-(trifluoromethyl)imidazo[4,5-c]pyridine]
≥ 80%: mortality at 200 ppm [1] | mortality at 200 ppm [2]

CCS(=O)(=O)c1cc2c(cc1-c1nc3cc(C(F)(F)F)ncc3n1C)nc(C(F)(F)F)n2C [Compound A9, 2-[6-ethylsulfonyl-1-methyl-2-(trifluoromethyl)benzimidazol-5-yl]-3-methyl-6-(trifluoromethyl)imidazo[4,5-c]pyridine]
≥ 80%: mortality at 200 ppm [3] | percent effect (mortality or growth inhibition) at 200 ppm [4] | percent effect (mortality or growth inhibition) at 200 ppm [5] | mortality at 200 ppm [6] | mortality at 200 ppm [7] | mortality at 24 ppm [8] | percent effect (mortality or growth inhibition) at 200 ppm [9] | mortality at 200 ppm [1] | percent effect (mortality, anti-feeding or growth inhibition) at 12.5 ppm [10] | mortality at 200 ppm [11] | pest or weed control at 200 ppm [12]

CCS(=O)(=O)c1cc2ccccc2cc1-c1nc2cc(C(F)(F)F)ncc2n1C [Compound A24, 2-(3-ethylsulfonyl-2-naphthyl)-3-methyl-6-(trifluoromethyl)imidazo[4,5-c]pyridine]
≥ 80%: percent effect (mortality or growth inhibition) at 200 ppm [4] | percent effect (mortality or growth inhibition) at 200 ppm [5] | mortality at 200 ppm [7] | mortality at 12 ppm [13] | percent effect (mortality or growth inhibition) at 200 ppm [9] | mortality at 200 ppm [1] | percent effect (mortality, anti-feeding or growth inhibition) at 12.5 ppm [10] | mortality at 200 ppm [2] | pest or weed control at 200 ppm [12]

CCS(=O)(=O)c1cc2nc(C(F)(F)F)sc2cc1-c1nc2cc(C(F)(F)F)ncc2n1C [Compound A31, 5-ethylsulfonyl-6-[3-methyl-6-(trifluoromethyl)imidazo[4,5-c]pyridin-2-yl]-2-(trifluoromethyl)-1,3-benzothiazole]
≥ 80%: mortality at 200 ppm [3] | percent effect (mortality or growth inhibition) at 200 ppm [4] | percent effect (mortality or growth inhibition) at 200 ppm [5] | mortality at 200 ppm [6] | mortality at 200 ppm [7] | percent effect (mortality or growth inhibition) at 200 ppm [9] | mortality at 200 ppm [1] | percent effect (mortality, anti-feeding or growth inhibition) at 12.5 ppm [10] | pest or weed control at 200 ppm [12]

CCS(=O)(=O)c1cc2nc(C(F)(F)F)n(C)c2nc1-c1nc2cc(C(F)(F)F)ncc2n1C [Compound A32, 6-ethylsulfonyl-3-methyl-5-[3-methyl-6-(trifluoromethyl)imidazo[4,5-c]pyridin-2-yl]-2-(trifluoromethyl)imidazo[4,5-b]pyridine]
≥ 80%: mortality at 200 ppm [3] | percent effect (mortality or growth inhibition) at 200 ppm [4] | percent effect (mortality or growth inhibition) at 200 ppm [5] | mortality at 200 ppm [7] | mortality at 24 ppm [8] | percent effect (mortality or growth inhibition) at 200 ppm [9] | mortality at 200 ppm [1] | percent effect (mortality, anti-feeding or growth inhibition) at 12.5 ppm [10] | mortality at 200 ppm [11] | pest or weed control at 200 ppm [12]

CCS(=O)(=O)c1cc2c(C3CC3)cccc2nc1-c1nc2cc(C(F)(F)F)ncc2n1C [Compound A43, 5-cyclopropyl-3-ethylsulfonyl-2-[3-methyl-6-(trifluoromethyl)imidazo[4,5-c]pyridin-2-yl]quinoline]
≥ 80%: percent effect (mortality or growth inhibition) at 200 ppm [4] | percent effect (mortality or growth inhibition) at 200 ppm [5] | mortality at 200 ppm [7] | percent effect (mortality or growth inhibition) at 200 ppm [9] | mortality at 200 ppm [1] | percent effect (mortality, anti-feeding or growth inhibition) at 12.5 ppm [10] | mortality at 200 ppm [2]

CCS(=O)(=O)c1cc2c(nc1-c1nc3cc(C(F)(F)F)ncc3n1C)CC(C)(C)O2 [Compound A59, 6-ethylsulfonyl-2,2-dimethyl-5-[3-methyl-6-(trifluoromethyl)imidazo[4,5-c]pyridin-2-yl]-3H-furo[3,2-b]pyridine]
≥ 80%: mortality at 200 ppm [3] | percent effect (mortality or growth inhibition) at 200 ppm [4] | percent effect (mortality or growth inhibition) at 200 ppm [5] | mortality at 200 ppm [7] | mortality at 24 ppm [8] | percent effect (mortality or growth inhibition) at 200 ppm [9] | mortality at 200 ppm [1] | percent effect (mortality, anti-feeding or growth inhibition) at 12.5 ppm [10] | mortality at 200 ppm [11]
